Columns and labels:
Assay type in all cases: cell-based, human
[1] = test system: proliferating cell nuclear antigen (PCNA); assay: PCNA Western blot in PANC-1 cells; details: PANC-1, 5.5 mM sugar, 48 h, compared to 2 mM glucose
Experimental: FIG. 19 depicts PCNA expression in accordance with an embodiment of the present invention. PANC-1 cells were plated in 2 mM, and 5.5 mM glucose, or 5.5 mM fructose for 48 h, after which proliferating cell nuclear antigen (PCNA) levels were measured by Western blot analysis.
Additionally, protein extracts were harvested in RIPA buffer from the PANC-1 cells following 2 mM, 5.5 mM glucose-, and fructose-treatment for 48 h, analyzed by Western blot, and immunoblotted using a specific monoclonal antibody to proliferating cell nuclear antigen (PCNA).

[2] = test system: ER positive MCF-7 breast cancer cells; assay: Breast cancer cell proliferation (MTT assay), MCF-7
Experimental: Estrogen receptor (ER) positive MCF-7, and ER negative MDA-MB231 cells were plated in 5 mM fructose or glucose for times between 8-72 h, and proliferative rates measured using MTT assay. *, p<0.05; **, p<0.01.
FIG. 5 depicts fructose-mediated increased breast cancer proliferation in accordance with an embodiment of the present invention. ER positive MCF-7, and ER negative MDA-MB231 cells were plated in a range of fructose or glucose concentrations (5-25 mM) for 72 h, after which proliferative rates were measured using an MTT assay. *, p<0.05 for concentrations between 5-25 mM fructose versus glucose.
Standard media for breast cancer cell culture contain either 5-7 mM (low) and 12-25 mM (high) glucose concentrations. Estrogen receptor (ER) positive MCF-7, and ER negative MDA-MB231 cells were cultured overnight in 2 mM glucose standard DMEM medium containing 10% fetal bovine serum prior to incubation for periods between 8, and 72 hours in standard DMEM medium containing 10% fetal bovine serum, and 5 mM glucose or 5 mM fructose.
Proliferative rates were then measured in replicate (minimum of 6) aliquot wells of the breast cancer cells grown in glucose, or fructose containing medium. […] In separate experiments, proliferative rates of the MCF-7, and MDA-MB231 breast cancer cells were compared following culture in a range of fructose, and glucose concentrations (2-25 mM) for 72 hours.

transketolase (TKK) = assay: Transketolase activity (NADH oxidation) in PANC-1 lysates; details: PANC-1, 5.5 mM fructose
Experimental: FIG. 34 depicts quantitation of transketolase activity in pancreatic cancer PANC-1 cells following incubation in 2 mM glucose, 5.5 mM glucose, and 5.5 mM fructose for 24 h, 48 h, and 72 h respectively, in accordance with an embodiment of the present invention.
The inventors believe that fructose-treatment of pancreatic cancer cells led to an increase in TKK-driven nucleic acid synthesis, and thus fructose-treatment would result in an increase in either PANC-1 TKK expression and/or activity in comparison to equivalent glucose concentrations. Western blot analysis on protein lysates derived from fructose-, and glucose-treated PANC-1 cells were performed (5.5 mM fructose, and glucose for 24, and 48 h as per previous protocol) using a specific TKK antibody, and compared TKK expression in the fructose-, and glucose-treated PANC-1 cells. As depicted in FIG. 33, TKK expression at 24 h, and 48 h in protein lysates derived from 5.5 mM glucose-treated PANC-1 cells was increased in comparison to expression in 2 mM glucose-treated cells. However, highest TKK expression was observed after 5.5 mM fructose treatment at 24 h, and 48 h, and TKK levels were almost 2-fold higher in 5.5 mM fructose-treated, in comparison to 5.5 mM glucose-treated cells (p<0.01). […] After gentle mixing the absorbance of the mixture was measured at 10 min intervals for 2 h at 340 nm. Transketolase activity was then derived from the difference in absorbance at 10, and 80 minutes, and expressed as nmol/min/million cells. […] Pancreatic cancer proliferation rates were then measured using the MTS assay (FIG. 35).

[3] = test system: fructokinase-1 (FK-1) mRNA; assay: Fructokinase-1 mRNA by Northern blot in MCF-7 cells; details: MCF-7, 5.5 mM fructose, 24 h
Experimental: FIG. 9 depicts Northern blot analysis of fructokinase-1 mRNA levels in MCF-7 breast cancer cells in accordance with an embodiment of the present invention. 20 μg total RNA was used to measure FK-1 mRNA levels in the MCF-7 cells following growth in 2 mM glucose, 5.5 mM glucose, or 5.5 mM fructose for 24 h. FK-1 was also detected in human liver, with lower levels in muscle tissue.
In additional studies, the inventors used Northern blot to confirm significant FK-1 mRNA expression in the breast cancer cells. As depicted in FIG. 9, fructokinase-1 mRNA expression was detected in MCF-7 cells cultured in 2, and 5.5 mM glucose, and 5.5 mM fructose, and in human muscle and liver tissue.

## O=C(CO)[C@@H](O)[C@H](O)[C@H](O)CO [fructose]
[1]
  PCNA expression: highest PCNA levels
[2]; MCF-7, 5 mM fructose vs 5 mM glucose, 8-72 h
  proliferative rates in fructose compared to glucose: higher proliferative rates
[2]; MCF-7, 72 hours, 5 mM fructose vs 5-fold higher glucose (25 mM)
  proliferative rates in 5 mM fructose compared to 25 mM glucose: higher proliferative rates
Transketolase (TKK); 24 h
  TKK activity higher than 5.5 mM glucose-treated cells: 2 fold
Transketolase (TKK); 48 h
  TKK activity higher than 5.5 mM glucose-treated cells: 3 fold
Transketolase (TKK); 72 h
  TKK activity higher than 5.5 mM glucose-treated cells: 1.7 fold
[3]
  FK-1 mRNA expression (Northern blot): Highest FK-1 expression

Reference: US20090232735A1, “USE OF FRUCTOSE-BASED THERAPIES FOR THE TREATMENT OF CANCER” (CEDARS-SINAI MEDICAL CENTER, priority 2005, published 2009)
